{"source": "patent US11820782B2", "about": "“Salt forms of amino pyrazine purine based selective kinase inhibitor” (FTG BIO LLC, priority 2018, dated 2023)", "key": {"[1]": {"assay": "Qualitative (kinetic/visual) solubility in solvents/media", "type": "physicochemical", "experimental": "2 mg quantity of API was taken in glass vial and small portions of solvent was added with vortexing till the clear solution is obtained (at room temperature or heating up to 50-60° C.).\nWeighed quantity of API was taken in glass vial and small portions of solvent was added with vortexing till the clear solution is obtained (at room temperature or heating up to 50-60° C.)."}, "[2]": {"assay": "Equilibrium solubility in pH 6.8 0.01M phosphate buffer by HPLC", "type": "physicochemical", "conditions": "pH6.8 0.01M potassium dihydrogen phosphate buffer"}, "[3]": {"assay": "1 week stability of shortlisted salts at 40° C./75% RH, open", "type": "physicochemical"}, "[4]": {"assay": "Solid state stability of physical forms at 40° C./75% RH by pXRD", "type": "physicochemical", "conditions": "40° C./75% RH open, 7 days", "experimental": "Physical forms crystallized from various methods of crystallization were exposed to 40° C./75% RH for 7 days in open condition to understand the physical stability of the new physical forms in the presence of heat and humidity and also to know if there is any form conversion in the stable forms of Esylate and oxalate salts of FT-1518."}, "[5]": {"assay": "Microsomal stability, MLM", "type": "in vitro ADME", "conditions": "mouse, mouse liver microsomes, 3 μM (n = 3), mice liver microsomes; read-out: Invitro T1/2, MLM", "experimental": "(§1) All in vitro experiments like protein binding, microsomal stability, cell cytotoxicity were performed as per study protocols of respective experiments."}, "[6]": {"assay": "Microsomal stability, PHLM", "type": "in vitro ADME", "conditions": "pooled human liver microsomes", "experimental": "as §1"}, "[7]": {"assay": "Microsomal stability, RLM", "type": "in vitro ADME", "conditions": "rat liver microsomes", "experimental": "as §1"}, "[8]": {"assay": "Plasma protein binding, mouse", "type": "in vitro ADME", "conditions": "mouse, plasma, 10 μM (n = 4); read-out: % Bound, Mouse plasma (converted)", "experimental": "as §1"}, "Mouse plasma": {"tested_on": "Mouse plasma", "assay": "Plasma protein binding, mouse", "type": "in vitro ADME", "experimental": "as §1"}, "[9]": {"assay": "Plasma protein binding, human", "type": "in vitro ADME", "conditions": "human, plasma, 10 μM (n = 4); read-out: % Bound, Human Plasma (converted)", "experimental": "as §1"}, "[10]": {"tested_on": "MDA-MB-231 (breast cancer)", "assay": "Anti-proliferative effect, MDA-MB-231", "type": "cell-based", "conditions": "Homo sapiens", "experimental": "as §1"}, "[11]": {"tested_on": "U-87 (giloblastoma, epithelial)", "assay": "Anti-proliferative effect, U-87", "type": "cell-based", "experimental": "as §1"}, "Hepatic clearance, mouse": {"assay": "Hepatic clearance, mouse", "type": "in vitro ADME"}, "Hepatic clearance, human": {"assay": "Hepatic clearance, human", "type": "in vitro ADME"}, "Hepatic clearance, rat": {"assay": "Hepatic clearance, rat", "type": "in vitro ADME"}, "Hepatic clearance, dog": {"assay": "Hepatic clearance, dog", "type": "in vitro ADME", "conditions": "dogs"}, "Caco-2 permeability": {"assay": "Caco-2 permeability", "conditions": "human, Caco-2"}, "Caco-2": {"tested_on": "Caco-2", "assay": "Caco-2 permeability"}}, "note": "Where two headings read alike, the source gives them in different places.", "data": [{"compound": "CCC(CC)n1cnc2c(-c3cnc(N)cn3)nc(N3CC4CCC(C3)O4)nc21", "note": "[FT-1518-Esylate]", "values": [{"measurement": "Solubility", "setting": "[1]; N-methyl pyrrolidone, organic solvent or mixture, thermodynamic from solid, N-methyl pyrrolidone, read-out: Solubility", "result": "> 100", "unit": "mg/mL"}, {"measurement": "Solubility", "setting": "[1]; Tetrahydrofuran", "result": "<1", "unit": "mg/mL"}, {"measurement": "Solubility", "setting": "[1]; acetone, organic solvent or mixture, thermodynamic from solid, Acetone, read-out: Solubility", "result": "< 1", "unit": "mg/mL"}, {"measurement": "Solubility", "setting": "[1]; acetonitrile, organic solvent or mixture, thermodynamic from solid, Acetonitrile, read-out: Solubility", "result": "> 100", "unit": "mg/mL"}, {"measurement": "Solubility", "setting": "[1]; dimethyl sulphoxide, organic solvent or mixture, thermodynamic from solid, Dimethyl sulphoxide, read-out: Solubility", "result": "> 100", "unit": "mg/mL"}, {"measurement": "Solubility", "setting": "[1]; ethyl acetate, organic solvent or mixture, thermodynamic from solid, Ethyl acetate, read-out: Solubility", "result": "< 1", "unit": "mg/mL"}, {"measurement": "Solubility", "setting": "[1]; isopropyl alcohol (2-propanol), organic solvent or mixture, thermodynamic from solid, Isopropyl alcohol (2-propanol), read-out: Solubility", "result": "10 to 25", "unit": "mg/mL"}, {"measurement": "Solubility", "setting": "[1]; n-hexane, organic solvent or mixture, thermodynamic from solid, n-hexane, read-out: Solubility", "result": "< 1", "unit": "mg/mL"}, {"measurement": "Solubility", "setting": "[1]; toluene, organic solvent or mixture, thermodynamic from solid, Toluene, read-out: Solubility", "result": "< 1", "unit": "mg/mL"}, {"measurement": "Solubility in pH 6.8 buffer", "setting": "[2]", "result": 77.98, "unit": "mg/mL"}, {"measurement": "pH of 2% w/v aqueous dispersion/solution", "setting": "[3]; 2% w/v in water", "result": 2.1}, {"measurement": "state of 2% w/v aqueous dispersion/solution", "setting": "[3]; 2% w/v in water", "result": "soluble"}, {"measurement": "% purity", "setting": "[3]; after 7 days at 40° C./75% RH, open, HPLC", "result": 98.07, "unit": "%"}, {"measurement": "XRD", "setting": "[3]; after 7 days at 40° C./75% RH, open, physical form vs initial", "result": "Same as initial form"}, {"measurement": "solid state stability (pXRD form)", "setting": "[4]; sample from cooling crystallization in ethanol", "result": "remained the same"}, {"measurement": "solid state stability (pXRD form)", "setting": "[4]; sample from slurry transformation in THF: toluene (1:1)", "result": "Same as initial salt"}, {"measurement": "solid state stability (pXRD form)", "setting": "[4]; sample from slurry transformation in THF", "result": "Same as initial salt"}, {"measurement": "solid state stability (pXRD form)", "setting": "[4]; sample from slurry transformation in ethyl acetate", "result": 40, "unit": "°C slurry converted"}, {"measurement": "solid state stability (pXRD form)", "setting": "[4]; sample from slurry transformation in toluene", "result": "Same as initial salt"}, {"measurement": "solid state stability (pXRD form)", "setting": "[4]; sample from solvent evaporation in THF:water (9:1)", "result": "Same as initial salt"}, {"measurement": "solid state stability (pXRD form)", "setting": "[4]; sample from solvent evaporation in acetonitrile", "result": "Same as initial salt"}, {"measurement": "solid state stability (pXRD form)", "setting": "[4]; sample from solvent evaporation in ethanol", "result": "formed Same as initial salt"}, {"measurement": "solid state stability (pXRD form)", "setting": "[4]; sample from solvent evaporation in methanol", "result": "Same as initial salt"}, {"measurement": "half-life at 3 μM", "setting": "[5]", "result": 24, "unit": "min"}, {"measurement": "half-life at 3 μM", "setting": "[6]; 3 μM (n = 3), read-out: Invitro T1/2, PHLM", "result": "> 60", "unit": "min"}, {"measurement": "stability in PHLM", "setting": "[6]", "result": "✓ FT1518, FT 1518-Esylate and FT1518-Oxalate was highly stable in PHLM and RLM"}, {"measurement": "half-life at 3 μM", "setting": "[7]; 3 μM (n = 3), read-out: Invitro T1/2, RLM", "result": "> 60", "unit": "min"}, {"measurement": "stability in RLM", "setting": "[7]", "result": "✓ FT1518, FT 1518-Esylate and FT1518-Oxalate was highly stable in PHLM and RLM"}, {"measurement": "fraction unbound at 10 μM", "setting": "[8]", "result": 0.0854}, {"measurement": "plasma protein binding, mouse plasma", "setting": "Mouse plasma", "result": "✓ FT1518, FT1518-Esylate and FT1518-Oxalate showed moderate plasma protein binding in both mouse and human plasma"}, {"measurement": "fraction unbound at 10 μM", "setting": "[9]", "result": 0.0298}, {"measurement": "IC50", "setting": "[10]", "result": "> 10", "unit": "µM"}, {"measurement": "IC50", "setting": "[11]", "result": "> 10", "unit": "µM"}, {"measurement": "hepatic clearance in terms of liver blood flow", "setting": "Hepatic clearance, mouse", "result": "high"}, {"measurement": "hepatic clearance in terms of liver blood flow", "setting": "Hepatic clearance, human", "result": "moderate"}, {"measurement": "hepatic clearance in terms of liver blood flow", "setting": "Hepatic clearance, rat", "result": "low"}, {"measurement": "hepatic clearance in terms of liver blood flow", "setting": "Hepatic clearance, dog", "result": "low"}, {"measurement": "efflux ratio at 10 μM", "setting": "Caco-2 permeability", "result": 1.8}, {"measurement": "Papp A→B at 10 μM", "setting": "Caco-2 permeability; Caco-2, Apparent permeability (Papp) A to B, 10 μM (n = 3)", "result": "216 ± 8.87", "unit": "nm/s"}, {"measurement": "Papp B→A at 10 μM", "setting": "Caco-2 permeability; Caco-2, Apparent permeability (Papp) B to A, 10 μM (n = 3)", "result": "383 ± 4.26", "unit": "nm/s"}, {"measurement": "permeability in Caco-2 assay", "setting": "Caco-2", "result": "✓ FT1518 base, FT1518-Esylate and FT1518-Oxalate showed high permeability in Caco-2 assay. Efflux ratio of <2 indicates compounds that the compounds may not be substrates of P-gp or BCRP efflux transporters"}]}]}
